The text below walks through data of patent publication US20230027026A1, “FUSED PYRIMIDINE COMPOUNDS, COMPOSITIONS AND MEDICINAL APPLICATIONS THEREOF” (JUBILANT BIOSYS LIMITED, priority 2019, published 2023).

Where a name gives a salt, the structure may show the parent alone.

The target in assay [1] is EGFR (A767_dupASV) expressing Ba/F3 stable cell line (Homo sapiens, UniProt P00533, DUP767-769, cells depend on it). As to the kind of experiment: Cellular proliferation (Alamar Blue) assay, EGFR A767_dupASV Ba/F3. The format is cell-based. As to conditions: EGFR A767_dupASV Ba/F3, 72 hr, read-out: A767 IC50. The procedure:
(§1) Example 3: Cellular Proliferation (Alamar Blue) Assays
(§2) • 1. EGFR(D770_N771insSVD) expressing Ba/F3 stable cell line • 2. EGFR (A767_dupASV) expressing Ba/F3 stable cell line • 3. A431 cells • 4. BTER2 (A775_G776insYVMA) expressing Ba/F3 stable cell line • 5. BTER2 (WT) expressing Ba/F3 stable cell line • 6. BT-474 cells
(§3) • 1. Seed cells at 5000 for A431 and 15,000 cells for Ba/F3 in 100 μL/well in complete media (for A431: DMEM with 10% FBS and for Ba/F3 cells: RPMI with 10% FBS) in 96-well tissue culture plate. Leave outer wells without cells for background measurements. Incubate at 37 degree Celsius in 5% CO2 humidified incubator for 16-18 hours. • 2. Add 0.025 ml of 5× concentration compound dilution or DMSO control. Final compound concentration range is 10-0.0005 μM prepared in 3-fold serial dilutions. Incubate for 72 hr at 37 degree Celsius in […] humidified incubator. • 3. Add 0.0125 mL Alamar Blue™ reagent to each well with multi-channel pipette and tap gently on each side of the plate to mix. Incubate for 3 hours at 37 degree Celsius in […] humidified incubator. • 4. Read plates on fluorescence reader (Tecan Spark Control, Device: Spark, Serial #: 1801006040) at 540 nm excitation, 590 nm emission wavelength. • 5. Data analysis was performed using XLfit 5.5.0.5.

Another assay has as its target T1, EGFR (T790M/L858R) (Homo sapiens, UniProt P00533, L858R/T790M).
T1 construct: GST; purchased Proqinase
Nature of the assay: EGFR L858R/T790M enzyme inhibition assay (HTRF). The format is biochemical. The conditions noted are these: 5 μM ATP, 60 min, read-out: EGFR_L858R T790M_IC50_nM. The procedure: Example 2: EGFR L858R & Del19/T790M Assay Protocol (to Find the IC50 for the Compounds Using HTRF Method)
Reagents for Enzyme Assay:
• 1. Enzyme Assay Buffer: 60 mM HEPES (pH 7.4), 50 mM NaCl, 20 mM MgCl2, 5 mM MnCl2, filtered using 0.2 μm pore size, stored at 4° C. • Supplements (added fresh to the enzyme buffer): 1M DTT stock was made, 5% BSA stock and 0.1M Na3OV4 stored at 4° C. Enzyme assay buffer 50 mL, 1 M DTT 100 μL, 5% BSA 500 μL, 0.1 M Na3OV4 50 μL. • 2. GST-hEGFR (L858R), active: EGFR (T790M/L858R), active (Proqinase), 3.6 μM stock; 2.5 nM in final assay. • 3. Gastrin Precusor-Biotinylated: Gastrin precursor (Tyr87) biotinylated peptide, EEAY*GWM, Cell Signaling Tech 1310, Lot-7, Want final 0.5 μM in assay. • 4. ATP: 10 mM stock in 100 μL Enzyme assay buffer pH 7.4 prepared freshly, want 5 μM in final assay. • 5. Test compounds: Powders were dissolved in 100% DMSO and made up to a final stock concentration of 10 mM (volume in μL to add for 10 mM=mg powder X 10^5/MW). Final compound concentration in the assay plate started at 10 μM.
• 1. HTRF buffer: 50 mM Tris —HCl, pH-7.5, 100 mM NaCl, 0.1% BSA, 0.05% Tween20, 0.5 mM EDTA, filtered using 0.2 μm pore size, stored at 4° C. • Phycolink® Streptavidin-Allophycocyanin (SA-APC) Prozyme, Cat. #PJ25S, Lot #896 085, 2.06 mg/mL, APC concentration is 11.6 μM, streptavidin concentration is 15.5 μM. Want 12 nM final in assay (based on streptavidin concentration). • 2. (Europium) Eu-W1024 Anti-phosphotyrosine (PT-66) Antibody: Perkin Elmer (Product Number: AD0068), monoclonal IgG1 that recognizes phosphotyrosine peptide 100 μg/ml stock. Want 0.1 nM final in assay.
• 1. The compound dilution was made by TECAN as per the above scheme. • 2. 16 μL of diluted compound was added to the assay plate by using TECAN. • 3. 10 μL of enzyme mix was added to each well except mins. • 4. 20 μL of substrate and ATP mix were added into each well of the assay plate, manually. • 5. The plate was incubated on a laboratory shaker at room temperature for 60 min. • 6. Meanwhile, the HTRF mix was prepared and 75 μL was added to the HTRF plate. • 7. When the incubation was over, 10 μL of the reaction mixture was transferred to the HTRF assay plate and incubated on a laboratory shaker for 30 min at room temperature. • 8. The reading was taken in Pherastar (ext 337 nm, Em 665 & 620 nm). • 9. The results were analyzed using Graphpad prism after calculation of the z factor, signal window and % inhibition to get the IC50.

In the next assay the test system is A431 cells. As to the kind of experiment: Cellular proliferation (Alamar Blue) assay, A431. The format is cell-based. The conditions noted are these: Homo sapiens, A-431; A431 cells, 72 hr, Alamar Blue; read-out: A431 IC50. The procedure:
as §1, §2, §3
(In general: Resazurin is reduced to fluorescent resorufin, in cell work by metabolically active cells.)

Assay [2] has as its target EGFR(D770_N771insSVD) expressing Ba/F3 stable cell line (Homo sapiens, UniProt P00533, DUP768-770, cells depend on it). As to the kind of experiment: Cellular proliferation (Alamar Blue) assay, EGFR D770_N771insSVD Ba/F3. The format is cell-based. The conditions noted are these: EGFR D770_N771insSVD Ba/F3, 72 hr, read-out: D770 IC50. The procedure:
as §1, §2, §3

Assay [3] addresses HER2 (A775_G776insYVMA) expressing Ba/F3 stable cell line (Homo sapiens, UniProt P04626, DUP772-775, cells depend on it). As to the kind of experiment: Cellular proliferation (Alamar Blue) assay, HER2 YVMA Ba/F3. The format is cell-based. As to conditions: HER2 A775_G776insYVMA Ba/F3, 72 hr, read-out: YVMA IC50. The procedure:
as §1, §2, §3

EGFR (A767_dupASV) expressing Ba/F3 stable cell line, sequence (P00533 with tags, fused parts or gaps DUP767-769): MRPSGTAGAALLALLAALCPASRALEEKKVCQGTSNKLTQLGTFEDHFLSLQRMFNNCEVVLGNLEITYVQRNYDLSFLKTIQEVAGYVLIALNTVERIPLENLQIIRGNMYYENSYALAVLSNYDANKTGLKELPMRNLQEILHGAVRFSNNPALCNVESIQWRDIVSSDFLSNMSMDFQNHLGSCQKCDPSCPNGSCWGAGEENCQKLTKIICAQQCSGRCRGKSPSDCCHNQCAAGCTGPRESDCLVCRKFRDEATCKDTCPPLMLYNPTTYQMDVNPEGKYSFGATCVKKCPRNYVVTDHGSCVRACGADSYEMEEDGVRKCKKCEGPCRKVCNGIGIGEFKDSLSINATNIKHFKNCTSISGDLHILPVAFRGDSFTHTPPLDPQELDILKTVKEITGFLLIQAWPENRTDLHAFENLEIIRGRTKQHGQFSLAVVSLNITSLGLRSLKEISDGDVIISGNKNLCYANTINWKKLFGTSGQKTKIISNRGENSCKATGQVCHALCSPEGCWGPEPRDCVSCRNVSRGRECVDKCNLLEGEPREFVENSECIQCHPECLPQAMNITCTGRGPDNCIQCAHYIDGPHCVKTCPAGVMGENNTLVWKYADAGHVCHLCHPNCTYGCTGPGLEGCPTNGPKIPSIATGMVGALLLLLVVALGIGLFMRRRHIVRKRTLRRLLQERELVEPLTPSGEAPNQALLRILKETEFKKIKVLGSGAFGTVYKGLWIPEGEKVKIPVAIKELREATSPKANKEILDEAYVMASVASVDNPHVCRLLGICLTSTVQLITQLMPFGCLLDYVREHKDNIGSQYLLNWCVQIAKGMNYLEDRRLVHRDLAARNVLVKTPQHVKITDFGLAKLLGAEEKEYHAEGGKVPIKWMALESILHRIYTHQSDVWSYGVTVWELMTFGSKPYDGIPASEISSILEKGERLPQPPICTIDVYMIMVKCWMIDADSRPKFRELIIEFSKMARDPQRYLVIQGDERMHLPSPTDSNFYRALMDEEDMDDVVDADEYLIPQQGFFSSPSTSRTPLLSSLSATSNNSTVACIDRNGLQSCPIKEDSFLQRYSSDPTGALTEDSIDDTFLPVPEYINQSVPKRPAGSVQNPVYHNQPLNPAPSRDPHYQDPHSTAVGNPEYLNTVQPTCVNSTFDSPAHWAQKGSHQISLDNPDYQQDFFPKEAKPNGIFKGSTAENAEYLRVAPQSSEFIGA
EGFR(D770_N771insSVD) expressing Ba/F3 stable cell line, sequence (P00533 with tags, fused parts or gaps DUP768-770): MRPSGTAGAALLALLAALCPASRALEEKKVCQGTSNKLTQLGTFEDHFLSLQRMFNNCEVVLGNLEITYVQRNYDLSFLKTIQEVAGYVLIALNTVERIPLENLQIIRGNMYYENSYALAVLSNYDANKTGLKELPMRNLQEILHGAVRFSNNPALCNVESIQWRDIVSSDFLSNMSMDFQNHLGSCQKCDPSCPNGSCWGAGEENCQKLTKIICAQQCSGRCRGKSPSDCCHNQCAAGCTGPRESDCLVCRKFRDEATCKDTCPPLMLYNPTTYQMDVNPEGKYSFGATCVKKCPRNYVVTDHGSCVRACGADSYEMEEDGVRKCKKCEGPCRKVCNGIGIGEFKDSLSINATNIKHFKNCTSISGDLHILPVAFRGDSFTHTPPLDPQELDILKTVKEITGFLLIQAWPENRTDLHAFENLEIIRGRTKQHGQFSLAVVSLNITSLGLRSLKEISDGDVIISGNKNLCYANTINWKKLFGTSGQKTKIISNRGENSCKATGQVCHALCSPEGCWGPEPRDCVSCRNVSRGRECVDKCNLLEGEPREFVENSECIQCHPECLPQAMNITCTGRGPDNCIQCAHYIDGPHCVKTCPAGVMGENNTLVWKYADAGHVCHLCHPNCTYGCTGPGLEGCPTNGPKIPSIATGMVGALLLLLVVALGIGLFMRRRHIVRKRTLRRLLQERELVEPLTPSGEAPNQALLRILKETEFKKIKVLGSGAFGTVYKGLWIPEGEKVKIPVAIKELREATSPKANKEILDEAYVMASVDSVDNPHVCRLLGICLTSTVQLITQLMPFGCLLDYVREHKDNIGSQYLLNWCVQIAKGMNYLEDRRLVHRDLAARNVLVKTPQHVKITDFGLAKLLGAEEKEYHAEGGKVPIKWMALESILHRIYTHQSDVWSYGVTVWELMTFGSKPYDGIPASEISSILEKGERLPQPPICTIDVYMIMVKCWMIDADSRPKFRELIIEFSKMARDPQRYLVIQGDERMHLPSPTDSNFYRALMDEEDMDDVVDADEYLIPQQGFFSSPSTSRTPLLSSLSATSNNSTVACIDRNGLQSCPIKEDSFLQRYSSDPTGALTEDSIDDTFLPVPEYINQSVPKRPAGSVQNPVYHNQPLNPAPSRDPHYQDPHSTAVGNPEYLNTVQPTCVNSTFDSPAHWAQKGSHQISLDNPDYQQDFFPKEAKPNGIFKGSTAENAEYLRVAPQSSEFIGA
HER2 (A775_G776insYVMA) expressing Ba/F3 stable cell line, sequence (P04626 with tags, fused parts or gaps DUP772-775): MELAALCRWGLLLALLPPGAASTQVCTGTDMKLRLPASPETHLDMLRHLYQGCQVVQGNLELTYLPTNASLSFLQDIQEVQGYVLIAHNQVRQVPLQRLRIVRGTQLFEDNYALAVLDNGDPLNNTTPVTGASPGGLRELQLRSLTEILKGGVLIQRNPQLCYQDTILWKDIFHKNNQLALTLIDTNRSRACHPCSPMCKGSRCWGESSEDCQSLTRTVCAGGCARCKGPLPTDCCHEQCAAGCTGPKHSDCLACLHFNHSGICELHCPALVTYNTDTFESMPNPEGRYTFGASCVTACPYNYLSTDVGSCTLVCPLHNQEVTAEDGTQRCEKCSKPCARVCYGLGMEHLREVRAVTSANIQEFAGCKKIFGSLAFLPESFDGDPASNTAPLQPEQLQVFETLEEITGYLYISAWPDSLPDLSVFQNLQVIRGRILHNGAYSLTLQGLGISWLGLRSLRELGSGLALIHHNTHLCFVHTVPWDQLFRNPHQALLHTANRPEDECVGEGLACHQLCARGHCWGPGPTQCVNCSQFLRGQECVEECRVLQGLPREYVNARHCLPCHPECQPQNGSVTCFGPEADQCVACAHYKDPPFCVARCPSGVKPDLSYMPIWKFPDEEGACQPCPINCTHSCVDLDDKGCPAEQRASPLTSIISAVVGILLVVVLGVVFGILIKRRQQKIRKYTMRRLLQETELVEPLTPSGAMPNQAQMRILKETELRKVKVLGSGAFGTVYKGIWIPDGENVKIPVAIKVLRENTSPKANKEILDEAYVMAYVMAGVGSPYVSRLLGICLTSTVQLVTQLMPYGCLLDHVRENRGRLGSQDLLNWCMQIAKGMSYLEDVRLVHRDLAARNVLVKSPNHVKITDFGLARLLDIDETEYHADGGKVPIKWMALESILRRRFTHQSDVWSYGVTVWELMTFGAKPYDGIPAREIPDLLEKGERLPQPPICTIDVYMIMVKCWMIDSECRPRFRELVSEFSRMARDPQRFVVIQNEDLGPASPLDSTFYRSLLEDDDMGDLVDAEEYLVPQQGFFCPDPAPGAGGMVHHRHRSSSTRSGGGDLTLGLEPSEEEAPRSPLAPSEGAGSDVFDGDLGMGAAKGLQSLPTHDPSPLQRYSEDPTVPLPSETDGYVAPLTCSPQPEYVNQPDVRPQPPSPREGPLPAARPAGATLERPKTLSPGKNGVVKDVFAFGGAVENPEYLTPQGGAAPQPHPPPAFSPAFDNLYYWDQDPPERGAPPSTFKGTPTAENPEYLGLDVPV
T1 sequence (P00533 25-1210 T790M/L858R): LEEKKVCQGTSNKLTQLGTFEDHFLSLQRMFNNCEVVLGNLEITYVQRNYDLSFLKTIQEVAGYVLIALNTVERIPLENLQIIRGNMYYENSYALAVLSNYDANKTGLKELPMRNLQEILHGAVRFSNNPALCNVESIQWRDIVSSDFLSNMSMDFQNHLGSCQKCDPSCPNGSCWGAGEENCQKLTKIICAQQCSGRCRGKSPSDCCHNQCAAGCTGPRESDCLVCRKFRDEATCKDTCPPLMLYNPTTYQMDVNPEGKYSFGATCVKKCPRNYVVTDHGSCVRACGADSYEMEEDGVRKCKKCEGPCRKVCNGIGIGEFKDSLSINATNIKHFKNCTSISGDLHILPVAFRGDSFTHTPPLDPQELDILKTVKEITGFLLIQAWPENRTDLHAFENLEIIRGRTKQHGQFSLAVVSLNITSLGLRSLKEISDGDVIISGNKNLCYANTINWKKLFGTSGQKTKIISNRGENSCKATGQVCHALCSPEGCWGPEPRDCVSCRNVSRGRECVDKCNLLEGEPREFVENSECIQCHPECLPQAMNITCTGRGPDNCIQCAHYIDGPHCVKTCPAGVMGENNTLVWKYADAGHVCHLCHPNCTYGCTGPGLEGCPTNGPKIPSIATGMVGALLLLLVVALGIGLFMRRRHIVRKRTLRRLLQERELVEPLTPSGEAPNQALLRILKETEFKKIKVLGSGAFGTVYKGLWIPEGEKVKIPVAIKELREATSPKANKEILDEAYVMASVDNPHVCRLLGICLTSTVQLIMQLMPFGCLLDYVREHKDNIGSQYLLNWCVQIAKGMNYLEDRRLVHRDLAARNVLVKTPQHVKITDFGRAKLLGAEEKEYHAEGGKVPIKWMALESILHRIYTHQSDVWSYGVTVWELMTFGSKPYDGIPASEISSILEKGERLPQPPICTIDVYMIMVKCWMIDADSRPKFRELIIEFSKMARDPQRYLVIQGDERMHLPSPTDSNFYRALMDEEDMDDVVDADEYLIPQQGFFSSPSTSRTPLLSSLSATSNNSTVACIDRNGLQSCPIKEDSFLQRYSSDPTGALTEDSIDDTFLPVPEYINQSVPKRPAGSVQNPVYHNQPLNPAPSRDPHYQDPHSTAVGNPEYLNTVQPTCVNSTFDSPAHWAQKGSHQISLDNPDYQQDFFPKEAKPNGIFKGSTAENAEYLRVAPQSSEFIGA

Take `C=CC(=O)N1CC[C@@H](N2C(=O)N(Cc3ccccc3)Cc3cnc(Nc4cn(C)nc4Cl)nc32)C1` (single isomer, unassigned) [Compound 38]: the GI50 in assay [1] and in assay [2] was at least 10 µM each time. In addition, the IC50 worked out at 0.446 µM at EGFR (T790M/L858R) and 7.49 µM in the assay on A431 cells.

Turning to `CN(C)C/C=C/C(=O)NC1CCCC(N2C(=O)N(Cc3ccccc3)Cc3cnc(Nc4cn(C)nc4Cl)nc32)C1` (centres unmarked) [Compound 33, (E)-N-(3-(3-benzyl-7-((3-chloro-1-methyl-1H-pyrazol-4-yl)amino)-2-oxo-3,4-dihydropyrimido[4,5-d]pyrimidin-1(2H)-yl)cyclohexyl)-4-(dimethylamino)but-2-enamide], the GI50 is 4.08 µM in assay [1] and 3.88 µM in assay [2]. Moreover, the IC50 on EGFR (T790M/L858R) is 0.869 µM; in the assay on A431 cells, at least 10 µM.

As for `CN(C)C/C=C/C(=O)N1CCC(N2C(=O)N(Cc3ccccc3)Cc3cnc(Nc4cn(C)nc4Cl)nc32)C1` (centres unmarked) [Compound 34, (E)-3-benzyl-7-((3-chloro-1-methyl-1H-pyrazol-4-yl)amino)-1-(1-(4-(dimethylamino)but-2-enoyl)pyrrolidin-3-yl)-3,4-dihydropyrimido[4,5-d]pyrimidin-2(1H)-one], at EGFR (T790M/L858R), the IC50 came to 6.57 µM.

Take `C=CC(=O)NC1CCCC(N2C(=O)N(c3ccc(F)cc3)Cc3cnc(Nc4cn(C)nc4Cl)nc32)C1` (centres unmarked) [Compound 36, N-(3-(7-((3-chloro-1-methyl-1H-pyrazol-4-yl)amino)-3-(4-fluorophenyl)-2-oxo-3,4-dihydropyrimido[4,5-d]pyrimidin-1(2H)-yl)cyclohexyl)acrylamide]: the GI50 in assay [1] was 3.92 µM; in assay [2] it was at least 10 µM. The IC50 is 0.00297 µM on EGFR (T790M/L858R) and at least 10 µM in the assay with A431 cells.

On to `C=CC(=O)N1CC[C@H](N2C(=O)N(c3ccccc3)Cc3cnc(Nc4cn(C)nc4Cl)nc32)C1` [Compound 41, (S)-1-(1-acryloylpyrrolidin-3-yl)-7-((3-chloro-1-methyl-1H-pyrazol-4-yl)amino)-3-phenyl-3,4-dihydropyrimido[4,5-d]pyrimidin-2(1H)-one], for which the GI50 in assay [1] stood at 0.504 µM; in assay [2], 0.759 µM. In addition, the figures for the IC50 at EGFR (T790M/L858R) and with A431 cells were 0.58 µM and at least 10 µM, respectively.

`CN(C)C/C=C/C(=O)N1CC[C@H](N2C(=O)N(c3ccccc3)Cc3cnc(Nc4cn(C)nc4Cl)nc32)C1` [Compound 42, (S,E)-7-((3-chloro-1-methyl-1H-pyrazol-4-yl)amino)-1-(1-(4-(dimethylamino)but-2-enoyl)pyrrolidin-3-yl)-3-phenyl-3,4-dihydropyrimido[4,5-d]pyrimidin-2(1H)-one]: the GI50 in assay [1] and in assay [2] was at least 10 µM throughout. Further, the IC50 at EGFR (T790M/L858R) and in the assay on A431 cells was at least 10 µM throughout.

For the molecule `CN(C)C/C=C/C(=O)Nc1cccc(N2C(=O)N(Cc3ccccc3)Cc3cnc(Nc4cn(C5CCN(C)CC5)nc4Cl)nc32)c1` [Compound 65, (E)-N-(3-(3-benzyl-7-((3-chloro-1-(1-methylpiperidin-4-yl)-1H-pyrazol-4-yl)amino)-2-oxo-3,4-dihydropyrimido[4,5-d]pyrimidin-1(2H)-yl)phenyl)-4-(dimethylamino)but-2-enamide trifluoroacetate salt], the GI50 in assay [1] came to 0.964 µM; in assay [3] it was 0.732 µM; in assay [2] it was 1.09 µM. Also, the IC50 in the assay on A431 cells is at least 10 µM.

Regarding `CN(C)C/C=C/C(=O)Nc1cccc(N2C(=O)N(Cc3ccccc3)Cc3cnc(Nc4ccc(N5CCN(C)CC5)nc4)nc32)c1` [Compound 66, (E)-N-(3-(3-benzyl-7-((6-(4-methylpiperazin-1-yl)pyridin-3-yl)amino)-2-oxo-3,4-dihydropyrimido[4,5-d]pyrimidin-1(2H)-yl)phenyl)-4-(dimethylamino)but-2-enamide], the figures for the GI50 in assay [1], in assay [3] and in assay [2] were 3.28 µM, 1.76 µM and 3.19 µM, respectively. Also, the IC50 with A431 cells was at least 10 µM.

As for `C=CC(=O)Nc1cccc(N2C(=O)N(Cc3ccccc3)Cc3cnc(Nc4ccc(N5CCN(C)CC5)nc4)nc32)c1` [Compound 67, N-(3-(3-benzyl-7-((6-(4-methylpiperazin-1-yl)pyridin-3-yl)amino)-2-oxo-3,4-dihydropyrimido[4,5-d]pyrimidin-1(2H)-yl)phenyl)acrylamide], the figures for the GI50 in assay [1], in assay [3] and in assay [2] were 0.041 µM, 0.09 µM and 0.084 µM, respectively. In addition, the IC50 in the assay on A431 cells is at least 10 µM.

On to `Cc1ccc(CN2Cc3cnc(Nc4cn(C)nc4Cl)nc3N(c3cccc(NC(=O)/C=C/CN(C)C)c3)C2=O)c(C)c1` [Compound 68, (E)-N-(3-(7-((3-chloro-1-methyl-1H-pyrazol-4-yl)amino)-3-(2,4-dimethylbenzyl)-2-oxo-3,4-dihydropyrimido[4,5-d]pyrimidin-1(2H)-yl)phenyl)-4-(dimethylamino)but-2-enamide], for which the GI50 was 0.356 µM in assay [1], 0.632 µM in assay [3] and 0.798 µM in assay [2]. In the assay on A431 cells, the IC50 worked out at 6.02 µM.

With `C=CC(=O)Nc1cccc(N2C(=O)N(Cc3ccc(C)cc3C)Cc3cnc(Nc4cn(C)nc4Cl)nc32)c1` [Compound 69, N-(3-(7-((3-chloro-1-methyl-1H-pyrazol-4-yl)amino)-3-(2,4-dimethylbenzyl)-2-oxo-3,4-dihydropyrimido[4,5-d]pyrimidin-1(2H)-yl)phenyl)acrylamide], the GI50 was found to be 0.333 µM in assay [1], 0.682 µM in assay [3] and 0.349 µM in assay [2]. The IC50 in the assay with A431 cells is at least 10 µM.

As to `C=CC(=O)Nc1ccccc1N1C(=O)N(c2ccccc2)Cc2cnc(Nc3cn(C)nc3Cl)nc21` [Compound 130, N-(2-(7-((3-chloro-1-methyl-1H-pyrazol-4-yl)amino)-2-oxo-3-phenyl-3,4-dihydropyrimido[4,5-d]pyrimidin-1(2H)-yl)phenyl)acrylamide], the GI50 was at least 10 µM in assay [1] and 9.26 µM in assay [2]. Further, in the assay with A431 cells, the IC50 was at least 10 µM.

Regarding `C=CC(=O)Nc1cccc(N2C(=O)N(c3ccccc3)Cc3cnc(Nc4cn(C5CCNCC5)nc4Cl)nc32)c1` [Compound 132, N-[3-(7-{[3-chloro-1-(piperidin-4-yl)-1H-pyrazol-4-yl]amino}-2-oxo-3-phenyl-1H,2H,3H,4H-pyrimido[4,5-d][1,3]diazin-1-yl)phenyl]prop-2-enamide], the values for the GI50 in assay [1] and in assay [2] were 0.96 µM and 0.973 µM, respectively. For the same molecule, the IC50 in the assay with A431 cells is at least 10 µM.
